How the values were obtained:
SIRT2 = target: T1, SIRT2 (Homo sapiens, UniProt Q8IXJ6); assay: SIRT2 enzyme inhibitory assay (fluorescence); format: biochemical; conditions: for activity at 0.01 µM / activity at 0.033 µM / activity at 0.1 µM / activity at 0.333 µM / activity at 1 µM / activity at 3.3 µM / activity at 10 µM / activity at 33 µM / activity at 100 µM: SIRT2 enzyme activity; for activity at 0.01 µM: 10 nM; for activity at 0.033 µM: 33 nM; for activity at 0.1 µM: 100 nM; for activity at 0.333 µM: 333 nM
T1 sequence (Q8IXJ6 1-389): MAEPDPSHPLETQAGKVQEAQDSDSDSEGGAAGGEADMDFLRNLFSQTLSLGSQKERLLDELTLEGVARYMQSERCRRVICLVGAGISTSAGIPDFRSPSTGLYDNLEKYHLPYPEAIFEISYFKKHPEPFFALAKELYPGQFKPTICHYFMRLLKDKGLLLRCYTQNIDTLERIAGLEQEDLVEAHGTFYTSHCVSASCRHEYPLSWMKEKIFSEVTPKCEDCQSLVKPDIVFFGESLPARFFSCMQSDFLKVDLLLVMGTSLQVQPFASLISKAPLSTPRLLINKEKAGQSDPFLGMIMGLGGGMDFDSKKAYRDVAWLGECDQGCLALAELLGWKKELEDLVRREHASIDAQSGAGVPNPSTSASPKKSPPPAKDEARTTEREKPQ
Experimental: All of the enzymatic reactions were conducted at 37°C for 30 min. […] The compounds were diluted in 10% DMSO and 5 ul of the dilution was added to each reaction mixture (50 ul). The assay was performed by quantitating the amount of fluorescent product generated from the enzyme reaction. Fluorescence intensity is then analyzed at excitation wavelength of 350–360 nm and emission wavelength of 450–460 nm on a SpectraMax M5 microtiter plate reader. The IC50 values were calculated using Prism GraphPad software.

THP-1 cells [1] = assay: In vitro antiproliferative CCK-8 assay, THP-1; format: cell-based; conditions: Homo sapiens
Experimental: (§1) The proliferation of THP-1, MOLM-13, SEM and MV4-11 cells was tested by CCK-8 assay. Briefly, cells were seeded in 96-well plate with about 5 × 10^3 cells in each well. The cells were treated with P6 or Ara-C (0–10 µM) after 24 h of incubation. CCK-8 reagent ([…]) was added to each well after 72 h of incubation, and cells were incubated at 37°C for 4 h. The light absorbance at 450 nm was measured by using an Opsys microplate reader (Dynex Technologirs, Chantilly, VA, United States). Results are illustrated as percent of cell viability normalized to DMSO-treated control cells.

MOLM-13 cells = assay: In vitro antiproliferative CCK-8 assay, MOLM-13; format: cell-based; conditions: Homo sapiens, 72 h, read-out: IC50 growth inhibition MOLM-13
Experimental: as §1

MV4-11 cells = assay: In vitro antiproliferative CCK-8 assay, MV4-11; format: cell-based; conditions: Homo sapiens, 72 h, read-out: IC50 growth inhibition MV4-11
Experimental: as §1

THP-1 cells [2] = assay: Colony formation assay, THP-1; format: cell-based; conditions: 12 days
Experimental: (§2) THP-1, MOLM-13, SEM and MV4-11 cells were cultured with P6 (0–2.0 µM) in 2.6% methycellulose medium containing 10% FBS in a 24-well flat-bottomed plate for 12 days ([Qu et al., 2021]). The number of individual colonies consisting of more than approximately 50 cells was counted by a CX43 microscope (Olympus, Shinjuku-ku, Tokyo, Japan) with an Olympus EP50 camera (Olympus, Shinjuku-ku, Tokyo, Japan).

[3] = test system: THP-1, MOLM-13, SEM and MV4-11 cells; assay: Colony formation assay, MLLr leukemic cells; format: cell-based; conditions: 0.2–2.0 µM, 12 days
Experimental: as §2

[4] = test system: THP-1, MOLM-13, SEM and MV4-11 cells; assay: Cell cycle analysis, MLLr leukemic cells; format: cell-based; conditions: 0.9–2.0 µM
Experimental: THP-1, MOLM-13, SEM and MV4-11 cells were incubated with 1.0 (THP-1, MOLM-13 cells) and 2.0 (SEM and MV4-11 cells) µM of P6 for 72 h. After treatment, cells were collected and fixed with 70% pre-cold ethanol in PBS and stored at −20°C for at least 24 h. Then the cells were stained with […] RNase A for 30 min in the dark at room temperature. Finally, flow cytometry was used to detect the percentage of cells in the sub-G1, G0/G1, S, and G2/M phases with a Beckman Coulter DxFLEX flow cytometer (Florida, Miami, USA). The data was analyzed and fitted by ModFit software.

[5] = test system: THP-1, MOLM-13, SEM and MV4-11 cells; assay: Cell apoptosis analysis, MLLr leukemic cells; format: cell-based; conditions: 72 h, flow cytometry
Experimental: THP-1, MOLM-13, SEM and MV4-11 cells were treated with P6 (0.45–4 µM) or Ara-C (0.1–2.0 µM) for 72 h, collected and resuspended in 1× binding buffer. Cells were incubated with FITC Annexin V and PI double labeling for 30 min in the dark at room temperature and measured by flow cytometry.

[6] = test system: THP-1, MOLM-13, SEM and MV4-11 cells; assay: Cell morphology / differentiation (Wright-Giemsa staining); format: cell-based; conditions: 72 h
Experimental: THP-1, MOLM-13, SEM and MV4-11 cells were incubated with P6 or Ara-C for 72 h and then collected. Slides were made by cytospin and subsequently air dried. The cells were stained with Wright-Giemsa and observed for morphological features using a light microscope.

`C=CC(=O)Nc1ccc(-c2cc(C(=O)N3CCN(c4ccccc4F)CC3)c3ccccc3n2)cc1` [Compound P6, N-(4-{4-[4-(2-Fluoro-phenyl)-piperazine-1-carbonyl]-quinolin-2-yl}-phenyl)-acrylamide] showed an activity at 0.01 µM (SIRT2; Repeat1) of 100%, an activity at 0.01 µM (SIRT2; Repeat2) of 98% and an activity at 0.033 µM (SIRT2; Repeat1) of 96%. For the same compound, the activity at 0.033 µM (SIRT2; Repeat2) was 100%, the activity at 0.1 µM (SIRT2; Repeat1) was 101% and the activity at 0.1 µM (SIRT2; Repeat2) was 101%. The activity at 0.333 µM (SIRT2; Repeat1) was 100%, the activity at 0.333 µM (SIRT2; Repeat2) was 95% and the activity at 1 µM (SIRT2; Repeat1) was 93%. It also gave an activity at 1 µM (SIRT2; Repeat2) of 83%, an activity at 3.3 µM (SIRT2; Repeat1) of 83% and an activity at 3.3 µM (SIRT2; Repeat2) of 73%. For the same compound, the activity at 10 µM (SIRT2; Repeat1) was 64%, the activity at 10 µM (SIRT2; Repeat2) was 65% and the activity at 33 µM (SIRT2; Repeat1) was 51%. It also gave an activity at 33 µM (SIRT2; Repeat2) of 48%, an activity at 100 µM (SIRT2; Repeat1) of 36% and an activity at 100 µM (SIRT2; Repeat2) of 39%. For the same compound, the IC50 (SIRT2; mean of two experiments) was 33500 ± 1600 nM, the IC50 (THP-1 cells [1]; 72 h, CCK-8, read-out: IC50 growth inhibition THP-1) was 870 nM and the inhibition at 1 µM (THP-1 cells [1]; dose of 1 μM, mean of three experiments, read-out: THP-1 percentage inhibitory rate) was 85.9 ± 3.42%. The IC50 (MOLM-13 cells) was 980 nM, the IC50 (MV4-11 cells) was 1900 nM and the colony formation percentage (THP-1 cells [2]; THP-1, 0.2 µM) was 93.2. The colony formation percentage (THP-1 cells [2]; THP-1, 0.4 µM) was 13.4, the colony formation percentage (THP-1 cells [2]; THP-1, 0.8 µM) was 4.1 and the “effect on number of colonies” value [3] was “significantly reduce the number of colonies with a dose dependent manner”. For the same compound, the “effect on cell cycle progression” value [4] was “capable of causing MLLr leukemic cell cycle arrest at G0/G1 phase”, the induction of apoptosis [5] was “no significant apoptosis” and the “cell differentiation / morphology” value [6] was “induced the cell differentiation accompanied with morphological changes”.
